Laboratory results taken from patent US9085791B2, “Method for screening substance relating to endoplasmic reticulum stress participating in onset of diabetes” (THE UNIVERSITY OF TOKUSHIMA, priority 2011, dated 2015).

Legend:
Format in all cases: cell-based
HEK293 cells = assay: Hoechst33258 staining for cell death of stimulated HEK293 cells; settings: etoposide 100 uM, thapsigargin 0.2 uM, DTT 1 mM, after 36 hours
ATF6 activation [1] = assay: ATF6 activity reporter system (EGFPS-ATF6d and EGFPL expression vectors) in HEK293 cells, green fluorescence
Text: An EGFPS-ATF6d expression vector and an EGFPL expression vector were produced using a green fluorescent protein GFP as a reporter protein. An ATF6 activity reporter system having the two vectors was introduced into the following cell strains.
The EGFPS-ATF6d expression vector and the EGFPL expression vector were introduced into HEK293 cells using a polyethylene imine method at an efficiency of not less than 90%. Through an electroporation method using NEON (electroporation device) (Invitrogen), the EGFPS-ATF6d expression vector and the EGFPL expression vector were introduced into MIN6 cells, HepG2 cells, 3T3-L1 cells, and L6 cells at an efficiency of not less than 80%, 60%, 90%, and 70%, respectively.
In order to confirm that the ATF6 activity reporter system functions in an endoplasmic reticulum stress-dependent manner, the EGFPS-ATF6d expression vector and the EGFPL expression vector were coexpressed or individually expressed in HEK293 cells.
In the cells in which the EGFPS-ATF6d expression vector and the EGFPL expression vector were coexpressed, green fluorescence was slightly observed. The cells were stimulated with 0.2 ug/ml tunicamycin, which is an endoplasmic reticulum stress inducer, and observed 6 hours after the stimulation.
It is important that ATF6 activity reporter system is capable of detecting ATF6 activation in an endoplasmic reticulum stress-specific manner. Therefore, HEK293 cells in which the EGFPS-ATF6d expression vector and the EGFPL expression vector are coexpressed are stimulated by etoposide, which is a DNA replication inhibitor; thapsigargin, which is an endoplasmic reticulum stress inducer; and DTT, which is an endoplasmic reticulum stress inducer, in an amount of 100 uM, 0.2 uM, and 1 mM, respectively; and the presence of fluorescence was observed.

MIN6 cells = assay: Insulin secretion in pancreatic β-cell MIN6 cells (ELISA); settings: thapsigargin 0.2 uM or DTT 1 M for 30 minutes, culture 36 hours, then KREBS buffer with 3 mM or 20 mM glucose for 1 hour
Protocol: A control solution (DMSO), a thapsigargin solution (thapsigargin/DMSO solution), or a DTT solution (DTT/DMSO solution) was added to a culture solution (DMEM containing 10% fetal bovine serum) in which pancreatic p-cell MIN6 cells are cultured, and the culture solution was replaced with a general culture solution (DMEM containing 10% fetal bovine serum) after 30 minutes. Then, the culture was continued for 36 hours. The thapsigargin solution was added so that the thapsigargin concentration in the culture solution became 0.2 uM, and the DTT solution was added so that the DTT concentration in the culture solution became […]. Thereafter, the culture solution was replaced with a KREBS buffer solution containing 3 mM or 20 mM glucose, and the culture was continued for 1 hours. The concentration of insulin secreted in the culture solution was measured according to the ELISA method.

PERK pathway = assay: PERK activation reporter (ATF4 translation) in cell strains derived from different organs; settings: HepG2, MIN6, L6, 3T3-L1 cells; 0.2 ug/ml tunicamycin, 6 hours
Text: (§1) The endoplasmic reticulum stress response is controlled by the three pathways, namely, Ire1 pathway, PERK pathway, and ATF6 pathway. Apart from the homeostasis of endoplasmic reticulum, they are also individually involved in control of organ-specific metabolism. Detection of the three endoplasmic reticulum stress response pathways is considered important to discover a drug targeting organ-specific endoplasmic reticulum stress response with fewer side effects. […] Med. (2004) 10 98-102, for measuring Ire1 pathway by XBP1 splicing, and a PERK activation reporter expression vector, disclosed in J Cell Biol. (2004) 167 27-33, for measuring PERK pathway by ATF4 translation were produced. An EGFPS-ATF6d expression vector, an EGFPL expression vector, the Ire1 activation reporter expression vector, and the PERK activation reporter expression vector were expressed in pancreatic β-cell strain MIN6 cells, hepatic cell strain HepG2 cells, adipose cell strain 3T3-L1 cells, and skeletal muscle cell strain L6 cells, respectively. The cells were observed 6 hours after the stimulation with 0.2 ug/ml tunicamycin, which is an endoplasmic reticulum stress inducer.

ATF6 activation [2] = assay: ATF6 activity reporter system in mouse fibroblasts modified by deleting Ire1α gene or PERK gene; settings: 0.2 ug/ml tunicamycin, 6 hours
Protocol: The endoplasmic reticulum stress response is known to be controlled by three individual pathways. It is important that the ATF6 activity reporter system enables detection of ATF6 activation with no influence of other pathways, such as Ire1 pathway or PERK pathway. In this connection, the EGFPS-ATF6d expression vector and the EGFPL expression vector were coexpressed in mouse fibroblasts modified by deleting Ire1α gene or PERK gene. The cells were observed 6 hours after stimulation with 0.2 ug/ml tunicamycin, which is an endoplasmic reticulum stress inducer.

ATF6 pathway = assay: ATF6 activity reporter system in cell strains derived from different organs; settings: HepG2, MIN6, L6, 3T3-L1 cells; 0.2 ug/ml tunicamycin, 6 hours
Text: as §1

IRE1 pathway = assay: Ire1 activation reporter (XBP1 splicing) in cell strains derived from different organs; settings: 0.2 ug/ml tunicamycin, 6 hours
Text: as §1

[3] = HEK293 cells coexpressing both vectors, etoposide 100 uM, thapsigargin 0.2 uM, DTT 1 mM

## O[C@H](CS)[C@H](O)CS (racemic) [DTT, dithiothreitol]
HEK293 cells
  cell death (Hoechst33258 staining): severe enough to cause cell death after 36 hours
ATF6 activation [1]; [3]
  green fluorescence: significant green fluorescence was observed
MIN6 cells
  insulin secretion (concentration of insulin secreted in the culture solution): insulin secretion was suppressed

## COc1cc([C@@H]2c3cc4c(cc3[C@@H](O[C@@H]3O[C@@H]5CO[C@@H](C)O[C@H]5[C@H](O)[C@H]3O)[C@H]3COC(=O)[C@H]23)OCO4)cc(OC)c1O [etoposide]
HEK293 cells
  cell death (Hoechst33258 staining): severe enough to cause cell death after 36 hours
ATF6 activation [1]; [3]
  green fluorescence: no green fluorescence was observed

## C/C=C(/C)C(=O)O[C@H]1C(C)=C2[C@H]([C@@H]1OC(=O)CCCCCCC)[C@@](C)(OC(C)=O)C[C@H](OC(=O)CCC)[C@@]1(O)[C@H]2OC(=O)[C@@]1(C)O [thapsigargin]
HEK293 cells
  cell death (Hoechst33258 staining): severe enough to cause cell death after 36 hours
ATF6 activation [1]; [3]
  green fluorescence: significant green fluorescence was observed
MIN6 cells
  insulin secretion (concentration of insulin secreted in the culture solution): insulin secretion was suppressed

## tunicamycin
PERK pathway
  degree of the activation of PERK pathway, order among cell strains: highest in hepatic cell strain HepG2 cells (pancreatic β-cell strain MIN6 cells and skeletal muscle cell strain L6 cells), followed by adipose cell strain 3T3-L1 cells
ATF6 activation [1]; 0.2 ug/ml tunicamycin, 6 hours after stimulation, HEK293 cells coexpressing EGFPS-ATF6d and EGFPL expression vectors
  green fluorescence: significant green fluorescence was observed
ATF6 activation [1]; 0.2 ug/ml tunicamycin, 6 hours after stimulation, HEK293 cells with EGFPS-ATF6d and EGFPL expression vectors individually expressed
  green fluorescence: no green fluorescence was observed
ATF6 activation [2]; fibroblast modified by Ire1α gene deletion
  green fluorescence: significant green fluorescence was observed
ATF6 activation [2]; fibroblast modified by PERK gene deletion
  green fluorescence: significant green fluorescence was observed
ATF6 pathway
  intensity of activation of ATF6 pathway, order among cell strains: highest in hepatic cell strain HepG2 cells, followed by pancreatic β-cell strain MIN6 cells, skeletal muscle cell strain L6 cells, and adipose cell strain 3T3-L1 cells in descending order
IRE1 pathway; adipose cell strain 3T3-L1 cells
  activation of IRE1 pathway (fluorescence intensity): relatively low
IRE1 pathway; hepatic cell strain HepG2 cells
  activation of IRE1 pathway (fluorescence intensity): relatively high
IRE1 pathway; pancreatic β-cell strain MIN6 cells
  activation of IRE1 pathway (fluorescence intensity): relatively high
IRE1 pathway; skeletal muscle cell strain L6 cells
  activation of IRE1 pathway (fluorescence intensity): relatively high
